Assay results from article PMC9520911, “New quinoline-based triazole hybrid analogs as effective inhibitors of α-amylase and α-glucosidase: Preparation, in vitro evaluation, and molecular docking along with in silico studies” (Frontiers in Chemistry, 2022).

How the values were obtained:
[1] = target: T1, Porcine pancreatic α-amylase (Sus scrofa, UniProt P00690); test: α-amylase inhibition assay (starch / dinitrosalicylic acid); assay type: biochemical; settings: for IC50: in vitro, mean ± SEM
T1 sequence (P00690 16-511): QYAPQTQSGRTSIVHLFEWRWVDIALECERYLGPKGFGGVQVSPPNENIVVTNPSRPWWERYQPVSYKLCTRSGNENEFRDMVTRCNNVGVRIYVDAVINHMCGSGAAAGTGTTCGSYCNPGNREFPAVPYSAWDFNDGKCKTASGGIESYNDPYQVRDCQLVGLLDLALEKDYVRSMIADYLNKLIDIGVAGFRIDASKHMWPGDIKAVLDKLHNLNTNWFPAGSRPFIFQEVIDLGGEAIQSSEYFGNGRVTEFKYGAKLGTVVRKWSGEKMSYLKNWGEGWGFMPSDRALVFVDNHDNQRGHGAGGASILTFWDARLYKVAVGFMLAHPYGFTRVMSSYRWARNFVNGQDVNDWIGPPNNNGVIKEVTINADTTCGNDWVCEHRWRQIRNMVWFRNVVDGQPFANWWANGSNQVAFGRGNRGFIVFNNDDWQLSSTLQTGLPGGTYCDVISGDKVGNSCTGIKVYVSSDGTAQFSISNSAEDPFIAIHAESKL
Protocol: After preincubation, 40 μL of a 1% starch solution in 0.02 M sodium phosphate buffer (pH 6.9 with 0.006 M sodium chloride) was added to each tube at 5 s intervals. […] The reaction was stopped with 100 μL of dinitro salicylic acid color reagent. The test tubes were then incubated in a boiling water bath for 5 min and cooled to room temperature. The reaction mixture was then diluted after adding 900 μL distilled water and the absorbance was measured at 540 nm.
Ac = the absorbance of the control
As = the absorbance of the sample

Structure (SMILES) | IC50 [1] [µM] | melting point | enhanced potency than standard acarbose drug (α-amylase) ([1]; relative to acarbose) | more potency than scaffold 7d (α-amylase) ([1]; relative to 7d) [folds]
S=c1[nH]nc(-c2ccc3cccnc3c2)n1-c1ccccc1 [1d, 4-Phenyl-5-(quinolin-7-yl)-2,4-dihydro-3H-1,2,4-triazole-3-thione] | 40.2 ± 0.7 | 137 to 138 °C (dec.) |  | 
Cc1ccccc1-n1c(-c2ccc3cccnc3c2)n[nH]c1=S [2d, 5-(Quinolin-7-yl)-4-(o-tolyl)-2,4-dihydro-3H-1,2,4-triazole-3-thione] | 22.6 ± 0.6 | 139 to 140 °C |  | 
Cc1cccc(-n2c(-c3ccc4cccnc4c3)n[nH]c2=S)c1 [3d, 5-(Quinolin-7-yl)-4-(m-tolyl)-2,4-dihydro-3H-1,2,4-triazole-3-thione] | 32.3 ± 0.6 | 136 to 137 °C |  | 
Cc1ccc(-n2c(-c3ccc4cccnc4c3)n[nH]c2=S)cc1 [4d, 5-(Quinolin-7-yl)-4-(p-tolyl)-2,4-dihydro-3H-1,2,4-triazole-3-thione] | 21.6 ± 0.4 | 127 to 128 °C |  | 
O=[N+]([O-])c1ccccc1-n1c(-c2ccc3cccnc3c2)n[nH]c1=S [5d, 4-(2-Nitrophenyl)-5-(quinolin-7-yl)-2,4-dihydro-3H-1,2,4-triazole-3-thione] | 5.3 ± 0.2 | 139 to 140 °C |  | 
O=[N+]([O-])c1cccc(-n2c(-c3ccc4cccnc4c3)n[nH]c2=S)c1 [6d, 4-(3-Nitrophenyl)-5-(quinolin-7-yl)-2,4-dihydro-3H-1,2,4-triazole-3-thione] | 21.4 ± 0.3 | 130 to 131 °C |  | 
O=[N+]([O-])c1ccc(-n2c(-c3ccc4cccnc4c3)n[nH]c2=S)cc1 [7d, 4-(4-Nitrophenyl)-5-(quinolin-7-yl)-2,4-dihydro-3H-1,2,4-triazole-3-thione] | 11.6 ± 0.2 | 127 to 128 °C |  | 
COc1ccc(-n2c(-c3ccc4cccnc4c3)n[nH]c2=S)cc1 [8d, 4-(4-Methoxyphenyl)-5-(quinolin-7-yl)-2,4-dihydro-3H-1,2,4-triazole-3-thione] |  | 134 to 135 °C |  | 
Fc1ccccc1-n1c(-c2ccc3cccnc3c2)n[nH]c1=S [9d, 4-(2-Fluorophenyl)-5-(quinolin-7-yl)-2,4-dihydro-3H-1,2,4-triazole-3-thione] | 1.5 ± 0.1 | 129 to 130 °C |  | 
Fc1cccc(-n2c(-c3ccc4cccnc4c3)n[nH]c2=S)c1 [10d, 4-(3-Fluorophenyl)-5-(quinolin-7-yl)-2,4-dihydro-3H-1,2,4-triazole-3-thione] | 2.1 ± 0.1 | 128 to 129 °C |  | 
Fc1ccc(-n2c(-c3ccc4cccnc4c3)n[nH]c2=S)cc1 [11d, 4-(4-Fluorophenyl)-5-(quinolin-7-yl)-2,4-dihydro-3H-1,2,4-triazole-3-thione] | 0.8 ± 0.05 | 131 to 132 °C | ten-fold | 
S=c1[nH]nc(-c2ccc3cccnc3c2)n1-c1ccccc1Cl [12d, 4-(2-Chlorophenyl)-5-(quinolin-7-yl)-2,4-dihydro-3H-1,2,4-triazole-3-thione] | 4.3 ± 0.1 | 136 to 137 °C |  | 
S=c1[nH]nc(-c2ccc3cccnc3c2)n1-c1cccc(Cl)c1 [13d, 4-(3-Chlorophenyl)-5-(quinolin-7-yl)-2,4-dihydro-3H-1,2,4-triazole-3-thione] | 14.6 ± 0.3 | 141 to 142 °C |  | 
S=c1[nH]nc(-c2ccc3cccnc3c2)n1-c1ccc(Cl)cc1 [14d, 4-(4-Chlorophenyl)-5-(quinolin-7-yl)-2,4-dihydro-3H-1,2,4-triazole-3-thione] | 6.4 ± 0.3 | 131 to 132 °C |  | 2
S=c1[nH]nc(-c2ccc3cccnc3c2)n1-c1ccccc1Br [15d, 4-(2-Bromophenyl)-5-(quinolin-7-yl)-2,4-dihydro-3H-1,2,4-triazole-3-thione] | 17.2 ± 0.3 | 135 to 136 °C |  | 
S=c1[nH]nc(-c2ccc3cccnc3c2)n1-c1cccc(Br)c1 [16d, 4-(3-Bromophenyl)-5-(quinolin-7-yl)-2,4-dihydro-3H-1,2,4-triazole-3-thione] | 31.8 ± 0.6 | 130 to 131 °C |  | 
S=c1[nH]nc(-c2ccc3cccnc3c2)n1-c1ccc(Br)cc1 [17d, 4-(4-Bromophenyl)-5-(quinolin-7-yl)-2,4-dihydro-3H-1,2,4-triazole-3-thione] | 19.2 ± 0.3 | 132 to 133 °C |  | 
S=c1[nH]nc(-c2ccc3cccnc3c2)n1-c1ccc(Cl)c(Cl)c1 [18d, 4-(3,4-Dichlorophenyl)-5-(quinolin-7-yl)-2,4-dihydro-3H-1,2,4-triazole-3-thione] | 1.8 ± 0.1 | 133 to 134 °C |  | 
S=c1[nH]nc(-c2ccc3cccnc3c2)n1-c1ccc(-c2ccccc2)cc1 [19d] | 18.5 ± 0.3 |  |  | 
